Assay results published in patent US20210393932A1, “DERMAL PATCHES AND GLASS SWABS FOR APPLICATION OF TOPICAL IMMUNOSENSITIZERS” (Squarex, LLC, priority 2020, published 2021).
“And” between values parts separate entries of the source, which are not always exact repeats. Equal values may be shown once.

Key:
[1] = tested on: herpes labialis (cold sores or oral herpes); settings: cited from earlier work
guinea pig skin = test: Cutaneous irritation (Draize, Primary Irritation Index) after SADBE dermal patch in guinea pig; assay type: in vivo; settings: for time to return to non-irritating levels post-dermal-application / time of peak cutaneous irritation: re-challenge
Description: Thirty (30) guinea pigs (15 female and 15 male) were utilized for this nonGLP study. Prior to and post dosing (dermal patches loaded with 20 microliters of 2, 6, or 18% SADBE drug solution) body weights, group food consumption, and Draize scoring for erythema, eschar formation, and edema at the dose site were be recorded. The dermal patch loaded with SADBE was applied to animals, and left in place for ˜12 hours plus/minus 1 hour. Following the ˜12 hour dosing period, patch sites was assessed by Draize scoring. […] After the 28 days assessment period, re challenge was performed, a second patch (not treated during the induction phase) was applied and assessed by Draize scoring.
Cutaneous irritation at the test site was observed and scored each day of the study by the Draize Scale for both Erythema & Eschar and Edema. The scale for each is in Tables 9 and 10, each on a 0-4 scale. The cumulative Erythema & Eschar and Edema score was the Primary Irritation Index score, which would therefore be on a 0-8 scale.
To assess the effect of the test article, SADBE (2%, 6%, and 18% in DMSO), on cutaneous skin irritation potential and sensitivity in guinea pig, Draize scoring system was used for dose site evaluation for erythema and eschar responses and for Edema. The test article (20 ul) was loaded on a dermal patch and applied to shaved guinea pig skin for 12 hrs (induction phase). The first dose site evaluation was performed for 30 days post application. A second dose was applied and dose site evaluation was also performed for approximately 5 weeks (challenge phase).
The Primary Irritation Index (pII) for each test article dose was calculated to assess the irritation potential. The Primary Irritation Index (pII) is the mean of the primary irritation score. The primary irritation score is the sum of the erythema/eschar score and the edema score, resulting in a maximal irritation potential of 8. The daily primary irritation index (pII) for each test article dose over the course of the study was calculated (FIG. 4). The pII is used to categorize the test article treatments as negligible to not irritating (0-0.9), slight (0.9-1.9), moderate (2-4.9) or severe (5-8) irritation potential. […] (FIG. 4.)

[2] = HPLC analysis of test article vials and patch controls in air (guinea pig study); assay type: physicochemical
Description: Squaric acid dibutyl ester (SADBE) at 2% (w/v) concentration in dimethylsulfoxide (DMSO) was added to a skin patch for dermal dosing of SADBE to test for a delayed-type hypersensitivity response or other skin irritation. In the laboratories of Squarex HPLC analysis was conducted to analyze for SADBE content, for analysis of the dose formulation prepared by APS and to determine stability of the test article in the dermal patches during the application time and to test for residual SADBE in the dermal patches after 12 hours applied to the animals.
The skin patches consisted of a polymer backing layer similar to 3M 9916 polyester nonwoven backing layer with adhesive, 3M 9733 polyester film laminate barrier layer, and Precision Fabrics Group 0700-00010 polyester gauze layer. The gauze was heat sealed to the barrier layer. The gauze patch area was 1.53 cm^2.
(§1) The tubes of DMSO with patches were transported to the Squarex laboratory, shaken at 200 rpm for 1 hour or more, and then the DMSO from each tube was placed in an injection vial and analyzed for SADBE content by HPLC on a C18 column with the program SADBE3-50 ul. SADBE elutes in this program at about 24.0 minutes and absorbs at 255 nm, so the area of the 24.0 min peak at 255 nm was used to quantify SADBE. The SADBE degradation product squaric acid monobutyl ester (SAMBE) was also quantified by 255 nm area under the curve at the elution time of 12.7 minutes.
The test article vials of 2%, 6%, and 18% SADBE dissolved in DMSO complied with specifications and had the predicted concentrations of SADBE at 24 hours after preparation.
The results indicated the SADBE was stable for more than 12 hours in the patches when not exposed to animal skin. There was no apparent loss of SADBE or conversion of SADBE to SAMBE.

[3] = Residual SADBE and SAMBE in patches after 12 hours on guinea pigs; assay type: in vivo, guinea pig
Description: as §1, with “Patches were removed from the pigs at the indicated times and immediately the reservoir portion of the patch was cut out and placed in a 50 ml tube with 10 ml of DMSO. The tubes” for “The tubes”

[4] = 2% patch control, 20 ul, >12 hours in air
[5] = 2% vial, SADBE in DMSO, 24 hours after preparation
[6] = 6% patch control, 20 ul, >12 hours in air
[7] = 6% vial, SADBE in DMSO, 24 hours after preparation
[8] = 18% patch control, 20 ul, >12 hours in air
[9] = 18% vial, SADBE in DMSO, 24 hours after preparation

SMILES: CCCCOc1c(OCCCC)c(=O)c1=O [SADBE, squaric acid dibutyl ester]
- time for which a single dose to the arm prevents outbreaks ([1]; SADBE-DMSO solution (Palli et al., Chang et al.)): ≥ 3 months
- number of cold sore outbreaks ([1]; single dose applied to the arm, for about four months (Palli et al., Chang et al.)): significantly decrease number of cold sore outbreaks
- irritation category by Primary Irritation Index (pII) (guinea pig skin; 2% SADBE, 20 ul patch, 12 h, first dose): slightly irritating
- duration of slight cutaneous irritation (guinea pig skin; 2% SADBE, induction): > 17 days
- time to return to non-irritating levels post-dermal-application (guinea pig skin; 2% SADBE): ~9 days
- irritation category by Primary Irritation Index (pII) (guinea pig skin; 2% SADBE, re-challenge (second dose)): moderately irritating
- duration of slight to moderate cutaneous irritation (guinea pig skin; 2% SADBE, re-challenge at naive site): ~5 days
- irritation category by Primary Irritation Index (pII) (guinea pig skin; 6% SADBE, 20 ul patch, 12 h, first dose): moderately irritating
- duration of moderate cutaneous irritation (guinea pig skin; 6% SADBE, induction): ~18 days
- time to return to slight irritation and not irritating levels (guinea pig skin; 6% SADBE, induction): ~23 days
- time of peak cutaneous irritation (guinea pig skin; 6% SADBE): ~5 days
- time to return to non-irritating levels post-dermal-application (guinea pig skin; 6% SADBE): ~14 days
- irritation category by Primary Irritation Index (pII) (guinea pig skin; 6% SADBE, re-challenge (second dose)): moderately irritating
- irritation category by Primary Irritation Index (pII) (guinea pig skin; 18% SADBE, 20 ul patch, 12 h, first dose): severely irritating
- duration of moderate to severe cutaneous irritation (guinea pig skin; 18% SADBE, induction): ~21 days
- time to return to slight irritation and not irritating levels post-dosing (guinea pig skin; 18% SADBE, induction): ~27 days
- time of peak cutaneous irritation (guinea pig skin; 18% SADBE): ~8 days
- time to return to non-irritating levels post-dermal-application (guinea pig skin; 18% SADBE): ~19 days
- irritation category by Primary Irritation Index (pII) (guinea pig skin; 18% SADBE, re-challenge (second dose)): moderately irritating
- % of expected SADBE [2, 4]: 106.0%
- SAMBE as percent of SADBE [2, 4]: 0.95%
- % of expected SADBE [2, 5]: 97.5%
- SAMBE as percent of SADBE [2, 5]: 0.84%
- % of expected SADBE [2, 6]: 94.5%
- SAMBE as percent of SADBE [2, 6]: 1.05%
- % of expected SADBE [2, 7]: 102.9%
- SAMBE as percent of SADBE [2, 7]: 0.83%
- % of expected SADBE [2, 8]: 100.3%
- SAMBE as percent of SADBE [2, 8]: 1.01%
- % of expected SADBE [2, 9]: 97.7%
- SAMBE as percent of SADBE [2, 9]: 0.91%
- time SADBE was stable in the patches ([2]; patches not exposed to animal skin, no apparent loss or conversion to SAMBE): more than 12 hours
- SADBE as % of expected (remaining in patch) ([3]; 2% patches, range of 10 patches): 0.0-1.3%
- SADBE as % of expected (remaining in patch) ([3]; 6% patches, average of 10 patches): 11% and 10.67%
- SADBE as % of expected (remaining in patch) ([3]; 6% patches, range of 10 patches): 2.7-22.7%
- SADBE as % of expected (remaining in patch) ([3]; 18% patches, average of 10 patches): 34% and 34.13%
- SADBE as % of expected (remaining in patch) ([3]; 18% patches, range of 10 patches): 23.0-46.5%
